# Test system: SUM149PT spheroids with HUVEC/MSC, viability
# Experiment: Anticancer human tumor SUM149PT cell line growth inhibition [GQUAD];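 further: spheroids exposed to drugs for seven days before readout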;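 on viability, T/C: percent viability relative to DMSO vehicle control taken as 100%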
# Conditions: for IC50: curve of first compound; for viability, T/C: stronger effect = lower value
# Summary of the method: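 Multi-cell-type spheroids of tumor cells with HUVEC and mesenchymal stem cells, treated with drug combinations. Concentrations descend in half-log steps from near clinical Cmax, or from 10 microM where Cmax is unknown; viability read-out.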
# [1] = second compound 0.0316 µM, first compound 0.0316 µM
# [2] = second compound 0.0316 µM, first compound 0.316 µM
# [3] = second compound 0.1 µM, first compound 0.0316 µM
# [4] = second compound 0.1 µM, first compound 0.316 µM
# [5] = second compound 0.316 µM, first compound 0.0316 µM
# [6] = second compound 0.316 µM, first compound 0.316 µM
# [7] = second compound 1 µM, first compound 0.0316 µM
# [8] = second compound 1 µM, first compound 0.316 µM
# [9] = second compound 3.16 µM, first compound 0.0316 µM
# [10] = second compound 3.16 µM, first compound 0.316 µM
# [11] = second compound 10 µM, first compound 0.0316 µM
# [12] = second compound 10 µM, first compound 0.316 µM
# [13] = second compound 0.0316 µM, first compound 0.1 µM
# [14] = second compound 0.0316 µM, first compound 1 µM
# [15] = second compound 0.0316 µM, first compound 3.16 µM
# [16] = second compound 0.0316 µM, first compound 10 µM
# [17] = second compound 0.1 µM, first compound 0.1 µM
# [18] = second compound 0.1 µM, first compound 1 µM
# [19] = second compound 0.1 µM, first compound 3.16 µM
# [20] = second compound 0.1 µM, first compound 10 µM
# [21] = second compound 0.316 µM, first compound 0.1 µM
# [22] = second compound 0.316 µM, first compound 1 µM
# [23] = second compound 0.316 µM, first compound 3.16 µM
# [24] = second compound 0.316 µM, first compound 10 µM
# [25] = second compound 1 µM, first compound 0.1 µM
# [26] = second compound 1 µM, first compound 1 µM
# [27] = second compound 1 µM, first compound 3.16 µM
# [28] = second compound 1 µM, first compound 10 µM
# [29] = second compound 3.16 µM, first compound 0.1 µM
# [30] = second compound 3.16 µM, first compound 1 µM
# [31] = second compound 3.16 µM, first compound 3.16 µM
# [32] = second compound 3.16 µM, first compound 10 µM
# [33] = second compound 10 µM, first compound 0.1 µM
# [34] = second compound 10 µM, first compound 1 µM
# [35] = second compound 10 µM, first compound 3.16 µM
# [36] = second compound 10 µM, first compound 10 µM
smiles,measurement,setting,value
Cc1[nH]c2ccccc2c1CCNCc1ccc(/C=C/C(=O)NO)cc1 + Cc1[nH]c2ccc(F)cc2c1-c1nc2c3cccnc3c3ncccc3c2[nH]1,IC50,second compound 0.0316 µM,260 nM
same,IC50,second compound 0.1 µM,> 316 nM
same,IC50,second compound 0.316 µM,299 nM
same,IC50,second compound 1 µM,304 nM
same,IC50,second compound 3.16 µM,308 nM
same,IC50,second compound 10 µM,250 nM
same,"viability, T/C","second compound 0.0316 µM, first compound 0.000999 µM",98%
same,"viability, T/C","second compound 0.0316 µM, first compound 0.00316 µM",99.6%
same,"viability, T/C","second compound 0.0316 µM, first compound 0.00999 µM",103%
same,"viability, T/C",[1],102%
same,"viability, T/C","second compound 0.0316 µM, first compound 0.0999 µM",98%
same,"viability, T/C",[2],40.3%
same,"viability, T/C","second compound 0.1 µM, first compound 0.000999 µM",101%
same,"viability, T/C","second compound 0.1 µM, first compound 0.00316 µM",97.5%
same,"viability, T/C","second compound 0.1 µM, first compound 0.00999 µM",97.6%
same,"viability, T/C",[3],97.2%
same,"viability, T/C","second compound 0.1 µM, first compound 0.0999 µM",90.6%
same,"viability, T/C",[4],50.3%
same,"viability, T/C","second compound 0.316 µM, first compound 0.000999 µM",108%
same,"viability, T/C","second compound 0.316 µM, first compound 0.00316 µM",107%
same,"viability, T/C","second compound 0.316 µM, first compound 0.00999 µM",98%
same,"viability, T/C",[5],106%
same,"viability, T/C","second compound 0.316 µM, first compound 0.0999 µM",87.6%
same,"viability, T/C",[6],47.8%
same,"viability, T/C","second compound 1 µM, first compound 0.000999 µM",106%
same,"viability, T/C","second compound 1 µM, first compound 0.00316 µM",96.6%
same,"viability, T/C","second compound 1 µM, first compound 0.00999 µM",93.6%
same,"viability, T/C",[7],105%
same,"viability, T/C","second compound 1 µM, first compound 0.0999 µM",97.4%
same,"viability, T/C",[8],48.3%
same,"viability, T/C","second compound 3.16 µM, first compound 0.000999 µM",96.8%
same,"viability, T/C","second compound 3.16 µM, first compound 0.00316 µM",89.4%
same,"viability, T/C","second compound 3.16 µM, first compound 0.00999 µM",81.4%
same,"viability, T/C",[9],93.3%
same,"viability, T/C","second compound 3.16 µM, first compound 0.0999 µM",89.4%
same,"viability, T/C",[10],49.1%
same,"viability, T/C","second compound 10 µM, first compound 0.000999 µM",99.1%
same,"viability, T/C","second compound 10 µM, first compound 0.00316 µM",88%
same,"viability, T/C","second compound 10 µM, first compound 0.00999 µM",89.4%
same,"viability, T/C",[11],88.5%
same,"viability, T/C","second compound 10 µM, first compound 0.0999 µM",82.2%
same,"viability, T/C",[12],41.4%
C=CCn1c(=O)c2cnc(Nc3ccc(N4CCN(C)CC4)cc3)nc2n1-c1cccc(C(C)(C)O)n1 + CN(C)c1ccc(Nc2c3ccc(NC(=O)CCN4CCCC4)cc3nc3cc(NC(=O)CCN4CCCC4)ccc23)cc1,IC50,second compound 0.0316 µM,196 nM
same,IC50,second compound 0.1 µM,174 nM
same,IC50,second compound 0.316 µM,155 nM
same,IC50,second compound 1 µM,102 nM
same,IC50,second compound 3.16 µM,121 nM
same,IC50,second compound 10 µM,130 nM
same,"viability, T/C",[1],93.8%
same,"viability, T/C",[13],72.7%
same,"viability, T/C",[2],32.3%
same,"viability, T/C",[14],19.8%
same,"viability, T/C",[15],11.4%
same,"viability, T/C",[16],7.42%
same,"viability, T/C",[3],92.8%
same,"viability, T/C",[17],69.2%
same,"viability, T/C",[4],28.1%
same,"viability, T/C",[18],20.1%
same,"viability, T/C",[19],9.53%
same,"viability, T/C",[20],9.35%
same,"viability, T/C",[5],95.8%
same,"viability, T/C",[21],62.1%
same,"viability, T/C",[6],30%
same,"viability, T/C",[22],16.4%
same,"viability, T/C",[23],8.18%
same,"viability, T/C",[24],6.73%
same,"viability, T/C",[7],78%
same,"viability, T/C",[25],50.4%
same,"viability, T/C",[8],28.5%
same,"viability, T/C",[26],16.4%
same,"viability, T/C",[27],9.65%
same,"viability, T/C",[28],7.97%
same,"viability, T/C",[9],87.7%
same,"viability, T/C",[29],54.1%
same,"viability, T/C",[10],29.4%
same,"viability, T/C",[30],17.9%
same,"viability, T/C",[31],7.8%
same,"viability, T/C",[32],7.28%
same,"viability, T/C",[11],89.1%
same,"viability, T/C",[33],56.6%
same,"viability, T/C",[12],28%
same,"viability, T/C",[34],17.1%
same,"viability, T/C",[35],9.36%
same,"viability, T/C",[36],8.81%
CC(C)n1c(=O)n(C)c2cnc3cc(F)c(-c4ccc(OCCCN5CCCCC5)nc4)cc3c21 + CN(C)c1ccc(Nc2c3ccc(NC(=O)CCN4CCCC4)cc3nc3cc(NC(=O)CCN4CCCC4)ccc23)cc1,IC50,second compound 0.0316 µM,> 10000 nM
same,IC50,second compound 0.1 µM,> 10000 nM
same,IC50,second compound 0.316 µM,> 10000 nM
same,IC50,second compound 1 µM,> 10000 nM
same,IC50,second compound 3.16 µM,8830 nM
same,IC50,second compound 10 µM,1180 nM
same,"viability, T/C",[1],101%
same,"viability, T/C",[13],88.5%
same,"viability, T/C",[2],95%
same,"viability, T/C",[14],99.9%
same,"viability, T/C",[15],95.8%
same,"viability, T/C",[16],68.2%
same,"viability, T/C",[3],98.6%
same,"viability, T/C",[17],90.2%
same,"viability, T/C",[4],96.3%
same,"viability, T/C",[18],95.7%
same,"viability, T/C",[19],96.5%
same,"viability, T/C",[20],64.2%
same,"viability, T/C",[5],94%
same,"viability, T/C",[21],79.4%
same,"viability, T/C",[6],86.6%
same,"viability, T/C",[22],95.8%
same,"viability, T/C",[23],93%
same,"viability, T/C",[24],61.5%
same,"viability, T/C",[7],74.8%
same,"viability, T/C",[25],83.4%
same,"viability, T/C",[8],87.4%
same,"viability, T/C",[26],89.7%
same,"viability, T/C",[27],81.2%
same,"viability, T/C",[28],57%
same,"viability, T/C",[9],84.7%
same,"viability, T/C",[29],80.9%
same,"viability, T/C",[10],73%
same,"viability, T/C",[30],72.2%
same,"viability, T/C",[31],70.7%
same,"viability, T/C",[32],46.6%
same,"viability, T/C",[11],75.3%
same,"viability, T/C",[33],71.6%
same,"viability, T/C",[12],61.9%
same,"viability, T/C",[34],52.1%
same,"viability, T/C",[35],38.8%
same,"viability, T/C",[36],24.8%
